pIC50: −log10 of the molar value.
Target: T1, human NOX4 (Homo sapiens, UniProt Q9NPH5)
T1 construct: The full-length human NOX4 (NM_016931.3) transcript was cloned; expressed in transfected cells
T1 sequence (Q9NPH5 1-578): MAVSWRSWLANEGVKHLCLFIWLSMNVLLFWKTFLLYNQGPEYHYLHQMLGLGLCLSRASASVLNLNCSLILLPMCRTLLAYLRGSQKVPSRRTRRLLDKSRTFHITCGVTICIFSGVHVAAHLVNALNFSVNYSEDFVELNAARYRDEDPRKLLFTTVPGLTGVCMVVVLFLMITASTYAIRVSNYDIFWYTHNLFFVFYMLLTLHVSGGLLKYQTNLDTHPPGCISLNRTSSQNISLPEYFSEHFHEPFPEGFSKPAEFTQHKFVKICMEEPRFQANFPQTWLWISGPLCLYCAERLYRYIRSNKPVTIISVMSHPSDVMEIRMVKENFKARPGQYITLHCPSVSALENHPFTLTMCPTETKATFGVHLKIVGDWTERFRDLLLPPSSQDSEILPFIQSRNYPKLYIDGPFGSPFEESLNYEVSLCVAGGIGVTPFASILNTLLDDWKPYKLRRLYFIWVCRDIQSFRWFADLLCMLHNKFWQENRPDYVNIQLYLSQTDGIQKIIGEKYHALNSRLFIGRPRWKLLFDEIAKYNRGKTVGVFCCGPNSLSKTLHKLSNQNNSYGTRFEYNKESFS
T1 sequence (P13498 1-195 partner): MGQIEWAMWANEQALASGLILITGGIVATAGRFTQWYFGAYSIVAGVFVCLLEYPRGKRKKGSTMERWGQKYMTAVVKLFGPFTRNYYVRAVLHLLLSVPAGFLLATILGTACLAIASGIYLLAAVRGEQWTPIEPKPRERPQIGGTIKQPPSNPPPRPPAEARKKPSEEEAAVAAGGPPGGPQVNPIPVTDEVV
Experiment: Amplex Red activity assay (cellular H2O2 formation in hNOX4 T-REx-293 cells)
Assay type: cell-based
Details: tet-induced 24 h, extracellular H2O2 by Amplex Red, 60 min 25° C., geometric mean if determined several times
Procedure: The nucleotide sequence and the amino acid sequence for the human NOX4 (Entrez Gene ID 50507) is known in the art and are published. The potency and efficacy of the compounds of Formula (I) are assessed for their potential to inhibit the formation of ROS in a cellular assay.
The full-length human NOX4 (NM_016931.3) transcript was cloned into the pDONR™221 vector (Life Technologies™) in order to generate, by site-specific integration according to the recommendation of the manufacturer (Life Technologies™), a recombinant pJTI™ R4 DEST CMV-TO vector containing the NOX4 coding information controlled by tetracycline (tet) responsive tet-on cytomegalovirus promoter (hNOX4 pDEST).
Modified human embryonic kidney cells overexpressing a tet receptor (Jump-In™ T-REx™ HEK293; Life Technologies™) were transfected with the NOX4-containing tet-on vector (hNOX4 pDEST) to generate a stable recombinant cell pool (hNOX4 T-REx-293). hNOX4 T-REx-293 cells were cultured in DMEM containing 4.5 g/L glucose supplemented with 10% fetal calf serum, penicillin (100 U/mL), streptomycin (100 μg/mL), geneticin (1 mg/mL), and blasticidin (5 μg/mL) at 37° C. in air with 5% CO2. Human Nox4 expression was induced with tet (1 μg/mL) for 24 h and extracellular H2O2 was quantified using the Amplex Red reagent (Life Technologies™).
Compounds were prepared as 10 mM stock solution in DMSO vehicle, then diluted in 384-well plates using DMSO followed by a transfer of the dilutions into the assay plate. As a control, diphenylene iodonium was included at a final concentration of 10 μM. Compounds were tested at 10 concentrations in the range from 50 μM highest to 100 nM lowest.
Cellular H2O2 formation was measured using the Amplex Red reagent. […] Cells were seeded into 384-well clear bottom plates at a density of 20 000 cells per well in presence or absence of compounds. […] All wells contained 1.25% of DMSO. The plates were kept at 25° C. for 60 min. The amount of produced resorufin was detected with the Synergy™ Mx microplate reader (BioTek) with excitation and emission wavelengths set to 550 nm and 600 nm, respectively. Fluorescence was measured for each well and the fluorescence at 600 nm wavelength was compared to the fluorescence of the vehicle in place of compound. Inhibitory activities of example compounds were determined by calculating the IC50 value (the concentration of compound needed to inhibit 50% of the enzyme activity). The calculated IC50 values may fluctuate depending on the daily cellular assay performance. Fluctuations of this kind are known to those skilled in the art.

SMILES: O=C(Nc1ccc2oc(N3CCN(C4COC4)CC3)nc2c1)c1ccc2c(c1)CCO2 [Example 53, 2,3-Dihydro-benzofuran-5-carboxylic acid [2-(4-oxetan-3-yl-piperazin-1-yl)-benzooxazol-5-yl]-amide]
- pIC50: 6.04

SMILES: CN(c1nc2cc(NC(=O)c3ccc4c(c3)CCO4)ccc2o1)C1CCN(C2COC2)CC1 [Example 54, 2,3-Dihydro-benzofuran-5-carboxylic acid {2-[methyl-(1-oxetan-3-yl-piperidin-4-yl)-amino]-benzooxazol-5-yl}-amide]
- pIC50: 5.54

SMILES: O=C(Nc1ccc2oc(N3CCCC4(COC4)C3)nc2c1)c1ccc2c(c1)CCO2 [Example 55, 2,3-Dihydro-benzofuran-5-carboxylic acid [2-(2-oxa-6-aza-spiro[3.5]non-6-yl)-benzooxazol-5-yl]-amide]
- pIC50: 6.40

SMILES: CN(CC1COC1)c1nc2cc(NC(=O)c3ccc4c(c3)CCO4)ccc2o1 [Example 56, 2,3-Dihydro-benzofuran-5-carboxylic acid [2-(methyl-oxetan-3-ylmethyl-amino)-benzooxazol-5-yl]-amide]
- pIC50: 6.04

SMILES: CN(c1nc2cc(NC(=O)c3ccc4c(c3)CCO4)ccc2o1)C1COC1 [Example 57, 2,3-Dihydro-benzofuran-5-carboxylic acid [2-(methyl-oxetan-3-yl-amino)-benzooxazol-5-yl]-amide]
- pIC50: 6.17

SMILES: COCC1CCCN1c1nc2cc(NC(=O)c3ccc4c(c3)CCO4)ccc2o1 (centres unmarked) [Example 58, 2,3-Dihydro-benzofuran-5-carboxylic acid [2-(2-methoxymethyl-pyirolidin-1-yl)-benzooxazol-5-yl]-amide]
- pIC50: 5.88

SMILES: COC1CCCN(c2nc3cc(NC(=O)c4ccc5c(c4)CCO5)ccc3o2)C1 (centres unmarked) [Example 59, 2,3-Dihydro-benzofuran-5-carboxylic acid [2-(3-methoxy-piperidin-1-yl)-benzooxazol-5-yl]-amide]
- pIC50: 6.14

SMILES: CN(C)CC1CCN(c2nc3cc(NC(=O)c4ccc5c(c4)CCO5)ccc3o2)C1 (centres unmarked) [Example 60, 2,3-Dihydro-benzofuran-5-carboxylic acid [2-(3-dimethylaminomethyl-pyrrolidin-1-yl)-benzooxazol-5-yl]-amide]
- pIC50: 5.78

SMILES: CN(C)CC1CCCN1c1nc2cc(NC(=O)c3ccc4c(c3)CCO4)ccc2o1 (centres unmarked) [Example 61, 2,3-Dihydro-benzofuran-5-carboxylic acid [2-(2-dimethylaminomethyl-pyrrolidin-1-yl)-benzooxazol-5-yl]-amide]
- pIC50: 5.28

SMILES: O=C(Nc1ccc2oc(N(C3CC3)C3COC3)nc2c1)c1ccc2c(c1)CCO2 [Example 63, 2,3-Dihydro-benzofuran-5-carboxylic acid [2-(cyclopropyl-oxetan-3-yl-amino)-benzooxazol-5-yl]-amide]
- pIC50: 6.44

SMILES: O=C(Nc1ccc2oc(N3CC(N4CCCC4)C3)nc2c1)c1ccc2c(c1)CCO2 [Example 64, 2,3-Dihydro-benzofuran-5-carboxylic acid [2-(3-pyrrolidin-1-yl-azetidin-1-yl)-benzooxazol-5-yl]-amide]
- pIC50: 5.67

SMILES: CC(C)(O)C1CN(c2nc3cc(NC(=O)c4ccc5c(c4)CCO5)ccc3o2)C1 [Example 65, 2,3-Dihydro-benzofuran-5-carboxylic acid {2-[3-(1-hydroxy-1-methyl-ethyl)-azetidin-1-yl]-benzooxazol-5-yl}-amide]
- pIC50: 6.07

SMILES: CN(C)CC1CN(c2nc3cc(NC(=O)c4ccc5c(c4)CCO5)ccc3o2)C1 [Example 66, 2,3-Dihydro-benzofuran-5-carboxylic acid [2-(3-dimethylaminomethyl-azetidin-1-yl)-benzooxazol-5-yl]-amide]
- pIC50: 5.38

SMILES: CN1CCC2(CC1)CCN2c1nc2cc(NC(=O)c3ccc4c(c3)CCO4)ccc2o1 [Example 67, 2,3-Dihydro-benzofuran-5-carboxylic acid [2-(7-methyl-1,7-diaza-spiro[3.5]non-1-yl)-benzooxazol-5-yl]-amide]
- pIC50: 5.51

SMILES: CN1CCC2(CC1)CN(c1nc3cc(NC(=O)c4ccc5c(c4)CCO5)ccc3o1)C2 [Example 68, 2,3-Dihydro-benzofuran-5-carboxylic acid [2-(7-methyl-2,7-diaza-spiro[3.5]non-2-yl)-benzooxazol-5-yl]-amide]
- pIC50: 5.75

SMILES: CN(C)C1CN(c2nc3cc(NC(=O)c4ccc5c(c4)CCO5)ccc3o2)C1 [Example 69, 2,3-Dihydro-benzofuran-5-carboxylic acid [2-(3-dimethylamino-azetidin-1-yl)-benzooxazol-5-yl]-amide]
- pIC50: 5.71

SMILES: O=C(Nc1ccc2oc(N3CC4(C3)CS(=O)(=O)C4)nc2c1)c1ccc2c(c1)CCO2 [Example 70, 2,3-Dihydro-benzofuran-5-carboxylic acid [2-(2,2-dioxo-2l6-thia-6-aza-spiro[3.3]hept-6-yl)-benzooxazol-5-yl]-amide]
- pIC50: 6.05

SMILES: O=C(Nc1ccc2oc(N3CCC34CCOC4)nc2c1)c1ccc2c(c1)CCO2 (centres unmarked) [Example 71, 2,3-Dihydro-benzofuran-5-carboxylic acid [2-(6-oxa-1-aza-spiro[3.4]oct-1-yl)-benzooxazol-5-yl]-amide]
- pIC50: 6.47

SMILES: O=C(Nc1ccc2oc(N3CC4(CCS4(=O)=O)C3)nc2c1)c1ccc2c(c1)CCO2 [Example 72, 2,3-Dihydro-benzofuran-5-carboxylic acid [2(1,1-dioxo-1l6-thia-6-aza-spiro[3.3]hept-6-yl)-benzooxazol-5-yl]-amide]
- pIC50: 6.28

SMILES: CN(C)C1(C)CN(c2nc3cc(NC(=O)c4ccc5c(c4)CCO5)ccc3o2)C1 [Example 73, 2,3-Dihydro-benzofuran-5-carboxylic acid [2-(3-dimethylamino-3-methyl-azetidin-1-yl)-benzooxazol-5-yl]-amide]
- pIC50: 5.39

SMILES: O=C(Nc1ccc2oc(N3CC4(CCOC4)C3)nc2c1)c1ccc2c(c1)CCO2 [Example 74, 2,3-Dihydro-benzofuran-5-carboxylic acid [2-(6-oxa-2-aza-spiro[3.4]oct-2-yl)-benzooxazol-5-yl]-amide]
- pIC50: 5.97

SMILES: CN1CCN(c2nc3cc(C(=O)Nc4ccc5c(c4)CCO5)ccc3o2)CC1 [Example 75, 2-(4-Methyl-piperazin-1-yl)-benzooxazole-5-carboxylic acid (2,3-dihydro-benzofuran-5-yl)-amide]
- pIC50: 6.38

SMILES: O=C(Nc1ccc2c(c1)CCO2)c1ccc2oc(N3CCCCC3)nc2c1 [Example 76, 2-Piperidin-1-yl-benzooxazole-5-carboxylic acid (2,3-dihydro-benzofuran-5-yl)-amide]
- pIC50: 6.38

SMILES: O=C(Nc1ccc2c(c1)CCO2)c1ccc2oc(N3CCOCC3)nc2c1 [Example 77, 2-Morpholin-4-yl-benzooxazole-5-carboxylic acid (2,3-dihydro-benzofuran-5-yl)-amide]
- pIC50: 6.26

SMILES: CCN(CC)c1nc2cc(C(=O)Nc3ccc4c(c3)CCO4)ccc2o1 [Example 78, 2-Diethylamino-benzooxazole-5-carboxylic acid (2,3-dihydro-benzofuran-5-yl)-amide]
- pIC50: 6.38

SMILES: O=C(Nc1ccc2c(c1)CCO2)c1ccc2oc(N3CCCC3)nc2c1 [Example 79, 2-Pyrrolidin-1-yl-benzooxazole-5-carboxylic acid (2,3-dihydro-benzofuran-5-yl)-amide]
- pIC50: 6.23
